In patent US11596639B2, “Substituted indole Mcl-1 inhibitors” (Vanderbilt University, priority 2016, dated 2023):

Experiments:
[1] = tested on: H929 human cancer cell lines; assay: Cellular viability / proliferation (Cell TiterGlo, 72 h); type: cell-based; settings: Homo sapiens, NCI-H929, 72 h, read-out: GI50 on cellular proliferation of H929 human cancer cell lines, H929 cells, 72 h, Cell TiterGlo, 10% FBS
Procedure, shortened: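 Cells were seeded at 1,000 cells/well in medium with 10% FBS and dosed 24 h later with a 2-fold serial dilution of compound (top concentration 50 μM, final DMSO <1%).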

[2] = biological target: Mcl-1 (Homo sapiens (Human), UniProt Q07820); assay: TR-FRET binding assay, FITC-Bak peptide and MBP-tagged Mcl-1; settings: read-out: Ki for Inhibition of Mcl-1 by TR-FRET assay
Sequence of Mcl-1 (Q07820 172-327): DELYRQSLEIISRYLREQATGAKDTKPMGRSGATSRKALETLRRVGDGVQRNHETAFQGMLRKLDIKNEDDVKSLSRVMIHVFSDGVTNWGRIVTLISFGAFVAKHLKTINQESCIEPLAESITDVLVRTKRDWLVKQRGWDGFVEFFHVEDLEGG
Method: Compounds are diluted in DMSO in a 16-point, semilog serial dilution scheme. […] The plate was mixed and incubated for 3 hours at room temperature. […] TR-FRET signal is plotted and IC50 and Ki values are calculated in the same manner as the fluorescence polarization anisotropy based competition assays.

Compound	GI50 [1] [nM]	Ki [2] [nM]
Cc1cc(OCCCc2c3n(c4c(-c5c(C)nn(C)c5C)c(Cl)ccc24)[C@H](C)CN(c2cn(CC(=O)N(C)C)c4ccc(-c5ncn(C)n5)cc24)C3=O)cc(C)c1Cl [Example 560, (R)-2-(3-(7-Chloro-10-(3-(4-chloro-3,5-dimethylphenoxy)propyl)-4-methyl-1-oxo-6-(1,3,5-trimethyl-1H-pyrazol-4-yl)-3,4-dihydropyrazino[1,2-a]indol-2(1H)-yl)-5-(1-methyl-1H-1,2,4-triazol-3-yl)-1H-indol-1-yl)-N,N-dimethylacetamide]	270	0.53
Cc1cc(OCCCc2c3n(c4c(-c5c(C)ncnc5C)c(Cl)ccc24)[C@H](C)CN(c2cn(C)c4ncc(C(=O)O)nc24)C3=O)cc(C)c1Cl [Example 644, (R)-7-(7-chloro-10(3-(4-chloro-3,5-dimethylphenoxy)propyl)-6-(4,6-dimethylpyrimidin-5-yl)-4-methyl-1-oxo-3,4-dihydropyrazino[1,2-a]indol-2(1H)-yl)-5-methyl-5H-pyrrolo[2,3-b]pyrazine-2-carboxylic acid]	1900	< 0.2
Cc1cc(OCCCc2c3n(c4c(-c5c(C)cc(O)cc5C)c(Cl)ccc24)[C@H](C)CN(c2cn(C)c4ccc(C(=O)O)cc24)C3=O)cc(C)c1Cl [Example 496, (R)-3-(7-chloro-10-(3-(4-chloro-3,5-dimethylphenoxy)propyl)-6-(4-hydroxy-2,6-dimethylphenyl)-4-methyl-1-oxo-3,4-dihydropyrazino[1,2-a]indol-2(1H)-yl)-1-methyl-1H-indole-5-carboxylic acid]	1200	0.64
CC(=O)N1CCN(c2cccc(Cn3c(C(=O)O)cc4cc(C)cc(N5C[C@@H](C)n6c(c(CCCOc7cc(C)c(Cl)c(C)c7)c7ccc(Cl)c(-c8c(C)nn(C)c8C)c76)C5=O)c43)n2)CC1 [Example 528, (R)-1-((6-(4-acetylpiperazin-1-yl)pyridin-2-yl)methyl)-7-(7-chloro-10-(3-(4-chloro-3,5-dimethylphenoxy)propyl)-4-methyl-1-oxo-6-(1,3,5-trimethyl-1H-pyrazol-4-yl)-3,4-dihydropyrazino[1,2-a]indol-2(1H)-yl)-5-methyl-1H-indole-2-carboxylic acid]	870	< 0.2
Cc1cc(OCCCc2c3n(c4c(-c5c(C)nn(C)c5C)c(Cl)ccc24)[C@H](C)CN(c2cc(C(=O)O)cc4cc(C(=O)O)n(C)c24)C3=O)cc(C)c1Cl [Example 697, (R)-7-(7-chloro-10-(3-(4-chloro-3,5-dimethylphenoxy)propyl)-4-methyl-1-oxo-6-(1,3,5-trimethyl-1H-pyrazol-4-yl)-3,4-dihydropyrazino[1,2-a]indol-2(1H)-yl)-1-methyl-1H-indole-2,5-dicarboxylic acid]	2000	< 0.2
COCCn1cc(C(=O)O)c2cc(OCCN(C)C)cc(N3C[C@@H](C)n4c(c(CCCOc5cc(C)c(Cl)c(C)c5)c5ccc(Cl)c(-c6c(C)nn(C)c6C)c54)C3=O)c21 [Example 671, (R)-7-(7-chloro-10-(3-(4-chloro-3,5-dimethylphenoxy)propyl)-4-methyl-1-oxo-6-(1,3,5-trimethyl-1H-pyrazol-4-yl)-3,4-dihydropyrazino[1,2-a]indol-2(1H)-yl)-5-(2-(dimethylamino)ethoxy)-1-(2-methoxyethyl)-1H-indole-3-carboxylic acid]	890	0.32
Cc1cc(OCCCc2c3n(c4c(-c5c(C)nn(C)c5C)c(Cl)ccc24)[C@H](C)CN(c2cc(NCc4ccccn4)cc4c(C(=O)O)cn(C)c24)C3=O)cc(C)c1Cl [Example 523, (R)-7-(7-Chloro-10-(3-(4-chloro-3,5-dimethylphenoxy)propyl)-4-methyl-1-oxo-6-(1,3,5-trimethyl-1H-pyrazol-4-yl)-3,4-dihydropyrazino[1,2-a]indol-2(1H)-yl)-1-methyl-5-((pyridin-2-ylmethyl)amino)-1H-indole-3-carboxylic acid]	890	0.5
Cc1cc(OCCCc2c3n(c4c(-c5c(C)nn(C)c5C)c(Cl)ccc24)[C@H](C)CN(c2cc(OCCOC(C)C)cc4c(C(=O)O)cn(Cc5ccccn5)c24)C3=O)cc(C)c1Cl [Example 606, (R)-7-(7-chloro-10-(3-(4-chloro-3,5-dimethylphenoxy)propyl)-4-methyl-1-oxo-6-(1,3,5-trimethyl-1H-pyrazol-4-yl)-3,4-dihydropyrazino[1,2-a]indol-2(1H)-yl)-5-(2-isopropoxyethoxy)-1-(pyridin-2-ylmethyl)-1H-indole-3-carboxylic acid]	600	0.47
COCCn1c(C(=O)O)cc2cc(C)cc(N3C[C@@H](C)n4c(c(CCCOc5cc(C)c(Cl)c(C)c5)c5ccc(Cl)c(-c6c(C)n[nH]c6C)c54)C3=O)c21 [Example 718, (R)-7-(7-chloro-10-(3-(4-chloro-3,5-dimethylphenoxy)propyl)-6-(3,5-dimethyl-1H-pyrazol-4-yl)-4-methyl-1-oxo-3,4-dihydropyrazino[1,2-a]indol-2(1H)-yl)-1-(2-methoxyethyl)-5-methyl-1H-indole-2-carboxylic acid]	410	< 0.2
COCCn1cc(N2C[C@@H](C)n3c(c(CCCOc4cc(C)c(Cl)c(C)c4)c4ccc(Cl)c(-c5c(C)nn(C)c5C)c43)C2=O)c2cc(-c3ncccn3)ccc21 [Example 548, (R)-7-Chloro-10-(3-(4-chloro-3,5-dimethylphenoxy)propyl)-2-(1-(2-methoxyethyl)-5-(pyrimidin-2-yl)-1H-indol-3-yl)-4-methyl-6-(1,3,5-trimethyl-1H-pyrazol-4-yl)-3,4-dihydropyrazino[1,2-a]indol-1(2H)-one]	610	0.94
Cc1cc(OCCCc2c3n(c4c(-c5c(C)nn(C)c5C)c(Cl)ccc24)[C@H](C)CN(c2cn(CC(=O)N4CCOCC4)c4ccc(-c5ncccn5)cc24)C3=O)cc(C)c1Cl [Example 531, (R)-7-Chloro-10-(3-(4-chloro-3,5-dimethylphenoxy)propyl)-4-methyl-2-(1-(2-morpholino-2-oxoethyl)-5-(pyrimidin-2-yl)-1H-indol-3-yl)-6-(1,3,5-trimethyl-1H-pyrazol-4-yl)-3,4-dihydropyrazino[1,2-a]indol-1(2H)-one]	380	0.48
COCc1cccn2nc(-c3ccc4c(c3)c(N3C[C@@H](C)n5c(c(CCCOc6cc(C)c(Cl)c(C)c6)c6ccc(Cl)c(-c7c(C)nn(C)c7C)c65)C3=O)cn4C)nc12 [Example 695, (R)-7-Chloro-10-(3-(4-chloro-3,5-dimethylphenoxy)propyl)-2-(5-(8-(methoxymethyl)-[1,2,4]triazolo[1,5-a]pyridin-2-yl)-1-methyl-1H-indol-3-yl)-4-methyl-6-(1,3,5-trimethyl-1H-pyrazol-4-yl)-3,4-dihydropyrazino[1,2-a]indol-1(2H)-one]	280	0.57
Cc1cc(OCCCc2c3n(c4c(-c5c(C)nn(C)c5C)c(Cl)ccc24)[C@H](C)CN(c2cc(NC(=O)CCN(C)C)cc4c(C(=O)O)cn(C)c24)C3=O)cc(C)c1Cl [Example 541, (R)-7-(7-Chloro-10-(3-(4-chloro-3,5-dimethylphenoxy)propyl)-4-methyl-1-oxo-6-(1,3,5-trimethyl-1H-pyrazol-4-yl)-3,4-dihydropyrazino[1,2-a]indol-2(1H)-yl)-5-(3-(dimethylamino)propanamido)-1-methyl-1H-indole-3-carboxylic acid]	1700	0.53
Cc1cc(OCCCc2c3n(c4c(-c5c(C)ncnc5C)c(Cl)ccc24)[C@H](C)CN(c2cc(OCCN4CCOCC4)cc4cc(C(=O)O)n(C)c24)C3=O)cc(C)c1Cl [Example 558, (R)-7-(7-chloro-10-(3-(4-chloro-3,5-dimethylphenoxy)propyl)-6-(4,6-dimethylpyrimidin-5-yl)-4-methyl-1-oxo-3,4-dihydropyrazino[1,2-a]indol-2(1H)-yl)-1-methyl-5-(2-morpholinoethoxy)-1H-indole-2-carboxylic acid]	310	< 0.2
Cc1cc(OCCCc2c3n(c4c(-c5c(C)nn(C)c5C)c(Cl)ccc24)[C@H](C)CN(c2cc(CCN4CCOCC4)cc4cc(C(=O)O)n(C)c24)C3=O)cc(C)c1Cl [Example 715, (R)-7-(7-chloro-10-(3-(4-chloro-3,5-dimethylphenoxy)propyl)-4-methyl-1-oxo-6-(1,3,5-trimethyl-1H-pyrazol-4-yl)-3,4-dihydropyrazino[1,2-a]indol-2(1H)-yl)-1-methyl-5-(2-morpholinoethyl)-1H-indole-2-carboxylic acid]	< 200	< 0.2
Cc1cc(N2C[C@@H](C)n3c(c(CCCOc4cc(C)c(Cl)c(C)c4)c4ccc(Cl)c(-c5c(C)nn(C)c5C)c43)C2=O)c2c(c1)cc1n2CCOC1=O [Example 685, (R)-6-(7-chloro-10-(3-(4-chloro-3,5-dimethylphenoxy)propyl)-4-methyl-1-oxo-6-(1,3,5-trimethyl-1H-pyrazol-4-yl)-3,4-dihydropyrazino[1,2-a]indol-2(1H)-yl)-8-methyl-3,4-dihydro-1H-[1,4]oxazino[4,3-a]indol-1-one]	1400	3.2
COCCOc1cc(N2C[C@@H](C)n3c(c(CCCOc4cc(C)c(Cl)c(C)c4)c4ccc(Cl)c(-c5c(C)nn(C)c5C)c43)C2=O)c2c(c1)c(C(=O)O)cn2C [Example 654, (R)-7-(7-chloro-10-(3-(4-chloro-3,5-dimethylphenoxy)propyl)-4-methyl-1-oxo-6-(1,3,5-trimethyl-1H-pyrazol-4-yl)-3,4-dihydropyrazino[1,2-a]indol-2(1H)-yl)-5-(2-methoxyethoxy)-1-methyl-1H-indole-3-carboxylic acid]	340	0.34
